From patent US10759749B2, “Therapeutic agent for diabetes” (JCR Pharmaceuticals Co., Ltd., priority 2016, dated 2020)
Read-outs that look alike come from different tables or passages of the source.

Assays:
MIN6-K8 cells [1] = experiment: Insulin secretion stimulation test using MIN6-K8 cells; type: cell-based; conditions: for insulin secretion from MIN6-K8 cells (relative to control): 1 μM to 100 μM test compound, 11.2 mM glucose, 30 minutes; for amount of insulin secretion from MIN6-K8 cells at 100 μM compared with 30 μM: concentration of 100 μM
Description: MIN6-K8 cells (cells similar to the MIN6-m9 cell line deposited as FERM P-18081) were cultured in Dulbecco's modified Eagle's medium (DMEM medium) supplemented with 10% FBS, 50 μM 2-mercaptoethanol, 100 mg/L streptomycin and 60.5 mg/L penicillin sulfate at 37° C. After washing the MIN 6-K8 cells twice with medium, the cells were washed twice with 133.4 mM NaCl, 4.7 mM KCl, 1.2 mM KH2PO4, 1.2 mM MgSO4, 2.5 mM CaCl2, 5.0 mM NaHCO3, 2.8 mM glucose, 0.1% BSA and 10 mM HEPES buffer (pH 7.4) for 30 minutes. Cells were then cultured for 30 minutes in the KRBH buffer containing the test compound and 11.2 mM glucose. After incubation, the concentration of insulin contained in the KRBH buffer solution was measured using an insulin assay kit (CIS Bio International Inc.). The concentration of insulin was obtained as a relative value when the concentration of insulin when the test compound was not added was taken as 1. Here, DSC108 and C8 were used as test compounds, and the abilities to promote insulin secretion of both drugs were compared within a concentration range of 1 μM to 100 μM. Measurement was carried out with n=3.
For the 1,1-diphenyl-4-cyclohexyl-semicarbazide derivatives numbered 2 to 7 shown in Table 1, an insulin secretion stimulation test using the above MIN6-K8 cells was performed. The concentration of the test compound was 100 μM, and the amount of secretion when the amount of insulin secreted when no test compound was added was taken as 1 was measured. Incidentally, the number 1 is 1,1-diphenyl-4-cyclohexyl-semicarbazide represented by the chemical formula (18). Numbers 2 to 7 are compounds in which one of hydrogen atoms on the cyclohexyl ring of 1,1-diphenyl-4-cyclohexyl-semicarbazide is substituted with a carboxyl group.

mouse pancreases = experiment: Insulin secretion stimulation test using mice (pancreas perfusion); type: in vivo; conditions: 10 μM, 2.8 mM glucose, perfused mouse pancreas
Description: Insulin secretion stimulation test using mouse was performed in accordance with the method described in Bonnevie-Nielsen V. Diabetes. 30. 424-9 (1981) and Miki T. Diabetes. 54. 1056-63 (2005). Male mice, 16 to 20 weeks old, fasted for 6 hours, were anesthetized by administering sodium pentobarbital at a dose of 80 mg/kg body weight. The anesthetized mouse pancreases were perfused with KRBH buffer containing 4.6% dextran and 0.25% BSA aerated at 95% O2/5% CO2.
Subsequently, mouse pancreases were perfused with KRBH buffer containing 2.8 mM glucose and 10 μM DSC 108, and the perfused solution was collected every minute, and the concentration of insulin contained in the perfusion solution was measured with an insulin assay kit (CIS Bio international Inc.) over time. IN parallel, as a control, mouse pancreases were perfused with a KRBH buffer solution containing 2.8 mM glucose, and the concentration of insulin contained in the perfusion solution was measured in the same manner.

MIN6-K8 cells [2] = experiment: Measurement of intracellular calcium ion concentration (Fura-2-AM); type: cell-based; conditions: 3 μM to 30 μM, 2.8 mM glucose
Description: In accordance with the method described in “Shimaoto K. Mol Pharmacol. 53, 195-201 (1998)”, measurement of intracellular calcium concentration was performed using fura-2-acetoxymethyl ester (Fura-2-AM, Dojindo Inc.) which is a calcium ion sensitive fluorescent reagent. MIN6-K8 cells were grown in Dulbecco's modified Eagle medium (DMEM medium) supplemented with 10% FBS, 50 μM 2-mercaptoethanol, 100 mg/L streptomycin and 60.5 mg/L penicillin sulfate in a humidified condition of 5% CO2, at 37° C.
MIN6-K8 cells were then left alone in KRBH buffer containing 5 μM Fura-2-AM and 2.8 mM glucose at 37° C. for 20 minutes. Then, KRBH buffer containing 3 μM, 10 μM or 30 μM of DSC108 was each added as a test compound and fluorescence intensity at 340 nm and 380 nm were measured using a dual wavelength fluorometer (Fluoroskan Ascent CF, Labsystem Inc.) over time for 20 minutes and the values of “fluorescence intensity at 340 nm/fluorescence intensity at 380 nm” were determined. […] Measurement was carried out with n=4.

human SUR1 (hSUR1) = biological target: T1, human SUR1 (hSUR1) (Homo sapiens, UniProt Q09428); experiment: [^3H] glibenclamide competition test; type: binding; conditions: 10 nM [^3H] glibenclamide, 30 minutes
T1 construct: expressed in transfected cells
T1 sequence (Q09428 whole entry): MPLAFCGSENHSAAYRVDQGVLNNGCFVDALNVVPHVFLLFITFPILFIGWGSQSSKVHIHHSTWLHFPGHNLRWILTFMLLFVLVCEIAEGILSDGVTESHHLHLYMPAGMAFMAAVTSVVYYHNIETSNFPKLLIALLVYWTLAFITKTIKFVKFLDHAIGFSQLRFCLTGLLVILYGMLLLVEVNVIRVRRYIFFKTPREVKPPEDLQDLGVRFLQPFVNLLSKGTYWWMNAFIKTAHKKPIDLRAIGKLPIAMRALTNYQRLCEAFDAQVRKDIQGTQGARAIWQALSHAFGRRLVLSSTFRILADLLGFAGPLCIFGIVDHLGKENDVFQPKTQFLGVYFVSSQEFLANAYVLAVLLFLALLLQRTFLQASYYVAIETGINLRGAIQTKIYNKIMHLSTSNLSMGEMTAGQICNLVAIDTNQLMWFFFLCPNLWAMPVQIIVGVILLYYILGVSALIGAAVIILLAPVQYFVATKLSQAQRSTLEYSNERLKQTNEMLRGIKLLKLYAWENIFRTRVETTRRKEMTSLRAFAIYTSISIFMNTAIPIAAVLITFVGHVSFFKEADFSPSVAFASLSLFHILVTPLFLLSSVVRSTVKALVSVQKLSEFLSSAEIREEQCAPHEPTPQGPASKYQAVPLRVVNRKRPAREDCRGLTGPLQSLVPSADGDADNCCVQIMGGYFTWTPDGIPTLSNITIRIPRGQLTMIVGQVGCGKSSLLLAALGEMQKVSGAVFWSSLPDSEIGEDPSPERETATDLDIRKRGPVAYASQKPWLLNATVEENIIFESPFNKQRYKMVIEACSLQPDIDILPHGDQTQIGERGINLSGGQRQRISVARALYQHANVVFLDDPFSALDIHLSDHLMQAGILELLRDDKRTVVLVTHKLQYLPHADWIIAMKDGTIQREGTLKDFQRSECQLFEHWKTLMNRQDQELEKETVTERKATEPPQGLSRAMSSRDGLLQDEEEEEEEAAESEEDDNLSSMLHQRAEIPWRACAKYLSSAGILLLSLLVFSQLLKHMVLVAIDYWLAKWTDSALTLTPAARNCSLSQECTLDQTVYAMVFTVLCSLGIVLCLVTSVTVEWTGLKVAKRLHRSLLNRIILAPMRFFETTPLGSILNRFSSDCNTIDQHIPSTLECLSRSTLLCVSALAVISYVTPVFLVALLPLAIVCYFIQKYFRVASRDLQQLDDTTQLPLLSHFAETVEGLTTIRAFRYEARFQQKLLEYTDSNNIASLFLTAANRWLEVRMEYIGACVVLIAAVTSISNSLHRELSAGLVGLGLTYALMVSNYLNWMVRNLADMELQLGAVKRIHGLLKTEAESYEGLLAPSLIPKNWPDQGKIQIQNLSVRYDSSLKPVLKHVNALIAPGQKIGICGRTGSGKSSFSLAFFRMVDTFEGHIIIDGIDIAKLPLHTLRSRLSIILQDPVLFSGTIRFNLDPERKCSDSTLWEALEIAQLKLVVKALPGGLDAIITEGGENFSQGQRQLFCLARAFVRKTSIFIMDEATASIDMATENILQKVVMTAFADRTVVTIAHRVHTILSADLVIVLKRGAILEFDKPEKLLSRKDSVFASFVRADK
Description: An expression vector incorporating a gene encoding human SUR1 (hSUR1) was introduced into MIN6-K8 cells by a conventional method to establish a cell line MIN6-K8, which expresses hSUR1 strongly. The MIN6-K8 cells expressing strongly hSUR1 were cultured in a buffer containing 10 nM [^3H] glibenclamide and DSC108-Na for 30 minutes. In this, the concentration of DSC108-Na in the buffer was 300 μM to 1 mM. The cells were vacuum-filtered and recovered on Whatmann GF/C filters (Whatmann International Inc.), and then the filters were washed three times with 4 mL of ice-cold buffer. After washing, radioactivities of the filters were measured with a liquid scintillation counter, and the amount of [^3H] glibenclamide bound to MIN6-K8 cells expressing strongly hSUR1 via hSUR1 was measured. Then, the value at the time of non-addition of DSC108-Na was taken as 100%, and the binding amount (%) of [^3H] glibenclamide to MIN6-K8 cells was determined as a relative value to this value.

[3] = biological target: T2, KATP channel (human SUR1 and human Kir6.2 reconstituted in COS-1 cells) (Homo sapiens, UniProt Q09428); experiment: Electrophysiological test using KATP channel expressing COS-1 cells; type: cell-based; conditions: 300 μM diazoxide; read-out: IC50 of inhibition of polarization of COS-1 cell membrane via KATP channel induced by diazoxide
T2 construct: expressed in transfected cells; host or cells: COS-1 cells
T2 sequence (Q09428 whole entry): as above
T2 sequence (Q14654 whole entry partner): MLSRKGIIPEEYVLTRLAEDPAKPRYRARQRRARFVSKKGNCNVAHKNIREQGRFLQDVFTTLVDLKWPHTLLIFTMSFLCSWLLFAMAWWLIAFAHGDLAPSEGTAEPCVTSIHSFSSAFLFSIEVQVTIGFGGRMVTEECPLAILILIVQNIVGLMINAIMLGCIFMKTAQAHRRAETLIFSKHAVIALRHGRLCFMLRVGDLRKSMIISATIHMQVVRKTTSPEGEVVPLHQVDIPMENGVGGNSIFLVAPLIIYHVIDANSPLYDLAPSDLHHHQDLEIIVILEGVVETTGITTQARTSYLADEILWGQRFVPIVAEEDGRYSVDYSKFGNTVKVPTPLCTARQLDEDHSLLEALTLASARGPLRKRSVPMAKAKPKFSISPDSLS
Description: Expression vectors incorporating the gene encoding human SUR1 (hSUR1) and expression vector incorporating the gene encoding human Kir6.2 (hKir6.2) were introduced into COS-1 cells together, and the KATP channel was reconstituted with COS-1 cells (Inagaki N. Science. 270, 1166-70 (1995)). The cells were cultured in DMEM medium (Sigma-Aldrich Inc.) supplemented with 10% FBS and plated on a 3.5 cm dish on which glass flakes coated with collagen had been spread prior to the experiment, and incubated at 37° C. for 24 to 72 hours.
The membrane potential of COS-1 cells reconstituted with KATP channels was determined by the method described in (Gonoi TJ Biol. Chem., 269: 16989-92 (1994)), in the current clamp mode with perforated patch clamp method. […] Inhibitory effect of DSC108 on the polarization of COS-1 cell membrane via KATP channel induced by 300 μM diazoxide (Sigma Chemical Inc.) under these conditions was measured.
At this time, outward current induced by 300 μM diazoxide (Sigma Chemical Inc.) was measured by […] patch clamp assay, and this value was set to 0 mV. The value of outward current when DSC108, glibenclamide or glicrazaide (Sigma Chemical Inc.) was added together with diazoxide was determined to determine the inhibitory effect (IC50) of these agents on the polarization of the cell membrane induced by diazoxide.

pancreatic β cells = experiment: Electrophysiological test using pancreatic β cells (membrane potential, perforated patch clamp); type: cell-based, C57BL/6 mice; conditions: in the presence of 30 μM compound; −69±2 mV in its absence
Description: Islets were isolated from C57BL/6 mice by collagenase digestion method in accordance with the method described “in Shibasaki T. Proc Natl Acad Sci USA. 104, 19333-8 (2007)”. The pancreatic islet cells were dispersed and cultured in DMEM supplemented with 10% FBS, and then plated on a 3.5 cm dish sheeted prior to the experiment with a glass flake coated with collagen.
Membrane potential of pancreatic β cells was measured by a perforated patch clamp method (Gonoi T J J. Biol. Chem., 269: 16989-92 (1994)) in current clamp mode. As an extracellular solution, 5 mM HEPES buffer-NaOH (pH 7.4) containing 143 mM NaCl, 5.4 mM KCl, 1.8 mM CaCl2, 0.5 mM MgCl2, 0.33 mM NaHPO4 and 5.5 mM glucose was used. As a pipette solution, 11 mM HEPES-KOH buffer (pH 7.4) containing 107 mM KCl, 11 mM EGTA, 2 mM MgSO4, 1 mM CaCl2 and […] ATP-K2 was used. Under this condition, outward current induced by 30 μM DSC108 was measured by a pierced patch clamp assay.

[4] = tested on: type 2 diabetes model rats; experiment: Measurement of hypoglycemic action using type 2 diabetes model rats (glucose loading); type: in vivo; conditions: GK/Slc rats, oral 100 mg/kg body weight
Description: To male GK/Slc rats (Japan SLC Inc.) 18-30 weeks old fasted for 6 hours, DSC108-Na was orally administered at 100 mg/kg body weight 20 minutes before glucose loading (1.5 g glucose/kg body weight) (DSC108-Na administration group). As a control, DSC108-Na non-administration group (vehicle administration group) was placed. The glucose concentration in the blood was measured using Antsense III glucose analyzer (Horiba Inc.). In addition, blood insulin concentration was measured by an ELISA method using an insulin measurement kit (Morinaga Inc.). Not limited to this examination, all animal tests were conducted in accordance with the provisions of the Kobe University Animal Experiment Implementation Rules with the approval of the Animal Experimental Ethics Committee of Kobe University.

[5] = mouse, in vivo, po, 30 mg/kg
Description: (§1) Peripheral blood was collected over time from the tail vein after administration. The collected blood was centrifuged to obtain plasma. An extraction solution (chloroform:methanol:water=1:2:0.8) containing 20 μM methionine sulfone was added to the plasma, followed by stirring and centrifugation. After filtering the extracted solution fraction with a 5 kD filter (Millipore Inc.), the extract was lyophilized. The extract obtained by lyophilization was dissolved in pure water and subjected to mass spectrometry. Mass spectrometry was performed using a mass spectrometer (LCMS-8050, Shimazu Inc.) fitted with liquid chromatography (Nexera UHPLC, Shimazu Inc.). Separation by liquid chromatography was performed with a double gradient of 0.1% formic acid aqueous solution and 0.1% acetonitrile formic acid solution using Discovery HS F5 column (3 μm, 2.1 mm×150 mm, Shigma-Aldrich Inc.).

wild type mice = experiment: Measurement of hypoglycemic action using wild type mice (glucose loading); type: in vivo, C57BL/6JJc1 mice; conditions: oral 10 to 100 mg/kg body weight, 20 minutes before glucose loading 1.5 g/kg
Description: To male C57BL/6JJc1 mice (CLEA Japan Inc.) of 18 to 30 weeks old fasted for 16 hours, 10, 30 or 100 mg/kg body weight of DSC108-Na was orally administered 20 minutes before glucose loading (1.5 g glucose/kg body weight) (10 mg/kg body weight administration group, 30 mg/kg body weight administration group and 100 mg/kg body weight administration group, respectively). As a control, DSC108-Na non-administration group (vehicle administration group) was placed. Glucose concentration in the blood was measured over time over 120 minutes after the administration using Antsense III glucose analyzer (Horiba Inc.). Measurement was carried out using 4 mice in each group.

[6] = Measurement of blood concentration after oral administration
Description: as §1

O=C(O)[C@H]1CC[C@@H](NC(=S)NN(c2ccccc2)c2ccccc2)CC1 [DSC108]
insulin secretion promoting ability compared between the two test compounds (MIN6-K8 cells [1]; 1 μM to 100 μM): higher insulin secretion promoting ability as compared with C8 | insulin secretion from MIN6-K8 cells (relative to control) (MIN6-K8 cells [1]): promoted insulin secretion from MIN6-K8 cells in a concentration-dependent manner | amount of insulin secretion from MIN6-K8 cells at 100 μM compared with 30 μM (MIN6-K8 cells [1]): decreased as compared with the concentration at 30 μM | time after initiation of perfusion at which insulin concentration in the perfusion liquid increased (mouse pancreases): 5 min | time after start of perfusion at which insulin concentration returned to baseline (mouse pancreases): 9 min | intracellular calcium ion concentration (fluorescence 340 nm/380 nm) (MIN6-K8 cells [2]): increased intracellular calcium ion concentration in a concentration-dependent manner | binding of [^3H] glibenclamide to hSUR1-strongly expressed MIN6-K8 cells (human SUR1 (hSUR1)): inhibited the binding of [^3H] glibenclamide to hSUR1-strongly expressed MIN6-K8 cells in a concentration-dependent manner | IC50 [3]: 2300 nM | membrane potential of pancreatic β cells (pancreatic β cells): −54±4 mV

O=C(O)[C@H]1CC[C@@H](NC(=S)NN(c2ccccc2)c2ccccc2)CC1 [DSC108-Na]
duration of the effect of lowering the glucose concentration in the blood [4]: 120 min | blood levels of insulin ([4]; 20 minutes after administration): increase in blood levels of insulin was observed | disappearance from the blood [5]: quickly disappeared from the blood | highest value in blood concentration [5]: 72.4 µM | time after administration of the highest blood concentration [5]: 30 min | hypoglycemic effect (blood glucose concentration) (wild type mice): dose-dependent hypoglycemic effect

S=C(NC1CCCCC1)NN(c1ccccc1)c1ccccc1 [C8, 1,1-diphenyl-4-cyclohexyl-thiosemicarbazide]
insulin secretion from MIN6-K8 cells (relative to control) (MIN6-K8 cells [1]): promoted insulin secretion from MIN6-K8 cells in a concentration-dependent manner | amount of insulin secretion from MIN6-K8 cells at 100 μM compared with 30 μM (MIN6-K8 cells [1]): decreased as compared with the concentration at 30 μM

Cc1ccc(S(=O)(=O)NC(=O)NN2CC3CCCC3C2)cc1 (centres unmarked) [Glyclazide, gliclazide]
concentration at 120 min ([6]; male, C57BL/6JJc1, mouse, plasma, po, 30 mg/kg): 75 µM | time after administration of the highest blood concentration ([6]; mice, oral, 30 mg/kg body weight): 60 min | highest value in blood concentration ([6]; mice, oral, 30 mg/kg body weight, plasma): approximately 100 μM
